Consider one compound from patent publication US11884747B2, “Compstatin analogs with increased solubility and improved pharmacokinetic properties” (The Trustees of the University of Pennsylvania, priority 2018, dated 2024).

Where “and” joins values, the source holds several entries; their conditions need not be identical. Identical values can stand only once. Entries after “also recorded” stand apart in the source; their conditions may differ. Like-named read-outs stand apart in the source and are kept apart here. Marks after values point to notes of the source that are not given here.

Series [1] is described as follows: Pharmacokinetics after single i.v. injection. Format: in vivo, cynomolgus monkeys. The protocol: FIG. 11 show graphs of peptide concentration over time in cynomolgus monkeys to which was administered a single 2 mg/kg intravenous injection of Cp40-KK (panel a), Cp40-KKK (panel b), mPEG(1 k)-Cp40 (panel c), and mPEG(3 k)-Cp40 (panel d). […]
In vivo pharmacokinetic studies were conducted, in which cynomolgus monkeys were administered single i.v. injections of mPEG(1 k)-Cp40, mPEG(3 k)-Cp40, Cp40-KK, or Cp40-KKK.

Series [2] in a line: Residence time in the vitreous after single intravitreal injection (WES and SPR competition assay). Format: in vivo, cynomolgus monkeys. On the procedure:
To determine the residence time of mPEG(3 k)-Cp40, mPEG(1 k)-Cp40, Cp40-KK, and Cp40-KKK in the vitreous of cynomolgus macaques, these Cp40-based analogs were administered intravitreally (i.v.t.) to the animals after induction of light ketamine anesthesia (10-15 mg/kg, by intramuscular injection (i.m.)) and dilation of the pupils with tropicamide/phenylephrine ophthalmic solution (see Table 6 for study design).
For i.v.t. injection, the cynomolgus monkeys were anesthetized with a combination of ketamine (15-25 mg/kg, i.m.) and xylazine (2 mg/kg, i.m.) and the eye was cleaned with povidone-iodine solution. After application of oxybuprocaine hydrochloride solution (Benoxil® ophthalmic solution 0.4%) to the cornea as a local anesthetic, the Cp40-based analogs were administered to the animals by i.v.t. injection into either the right (G1, G3) or left (G2, G4) eye of each animal. Immediately following each injection, a single topical dose of 0.5% levofloxacin was administered. After i.v.t. injection of mPEG(3 k)-Cp40, mPEG(1 k)-Cp40, Cp40-KK, and Cp40-KKK, vitreous fluid samples (about 50 μL each) were withdrawn from Cp40-based analog-treated eyes on days 14, 28, 42, (G1, G2, G3, G4), 56, 73, 90 (G1, G2) (this was done either three times or six times). Samples were collected on ice and stored in a deep freezer (˜79.3 to −68.5° C.) until further analysis. […] Presence and concentration of the Cp40-based analogs was determined using either the simple western technology (WES, ProteinSimple, San Jose, CA), or surface plasmon resonance (SPR)-based real-time measurement of binding kinetics on a Cp40-KKK immobilized chip (see detailed methods below). Similar results with regard to the intravitreal residence time and concentration levels of the test compounds were obtained regardless of the quantification method selected.
To quantify the levels of all test compounds in vitreous samples collected at different time points following i.v.t. injection (see FIG. 15), WES analysis was performed on a WES instrument (ProteinSimple, San Jose, CA) using a 2 to 40 kDa Separation Module and Anti-Rabbit Detection Module according to the manufacturers' instructions. […] The resulting electropherograms were evaluated using the Compass software (ProteinSimple, San Jose, CA). The following criteria were used to discriminate low peptide signals from background: The peak signal-to-noise (S/N) ratio given by the software must be ≥10, and the peak height/baseline ratio (calculated manually from the peak height and baseline values given by the software) must be equal to or greater than 3. […] Shown in FIG. 15 is a representative standard curve generated using the WES system and bands obtained upon running pre-determined amounts of purified peptide spiked into rabbit vitreous samples. […]

A further series in a line: physchem. Particulars: pH 7.4, Conc. (mg/ml), solubility in PBS.
A short description of series [3]: Pharmacokinetics in NHP plasma after single s.c. injection, with plasma C3 levels.
Series [4] deals with complement classical pathway. Kind of series: Classical pathway activation (C3b deposition) ELISA in human plasma with or without rabbit vitreous. Format: biochemical. Particulars: in the absence of vitreous. On the procedure: An alternative explanation to the one presented above is that the vitreous contains additional unidentified factors that associate with the Cp40-KKK analog. To investigate whether an unidentified vitreous factor impacts the complement inhibitory activity of lysine containing compounds, complement activation assays were performed using vitreous samples. Briefly, human plasma was incubated with OVA-anti-OVA immune-complexes in the presence of serial dilutions of the Cp40-based analogs mixed with rabbit vitreous. Levels of classical pathway activation (C3b deposition) were determined by ELISA using a polyclonal anti-human C3 antibody conjugated with HRP (MP Biomedicals, Solon, OH) (FIG. 20).

Where [5] appears, read: pH adjusted upon addition of PBS.

As to `CC[C@H](C)[C@H](NC(=O)[C@H](N)Cc1ccc(O)cc1)C(=O)N[C@H]1CSSC[C@@H](C(=O)N(C)[C@H](C(=O)N[C@@H](CCCCN)C(=O)N[C@@H](CCCCN)C(=O)N[C@@H](CCCCN)C(N)=O)[C@@H](C)CC)NC(=O)[C@H](CCCNC(=N)N)NC(=O)[C@H](Cc2c[nH]cn2)NC(=O)[C@H](C)NC(=O)CN(C)C(=O)[C@H](Cc2c[nH]c3ccccc23)NC(=O)[C@H](CC(=O)O)NC(=O)[C@H](CCC(N)=O)NC(=O)[C@H](Cc2cn(C)c3ccccc23)NC(=O)[C@H](C(C)C)NC1=O` [Cp40-KKK, DTyr-Ile-[Cys-Val-Trp(Me)-Gln-Asp-Trp-Sar-Ala-His-Arg-Cys]-mlle-Lys-Lys-Lys—NH2], the “in vivo Lys cleavage in plasma” value in series [1] (after i.v. injection) was “metabolized into Cp40-KK and small amounts of Cp40-K”. Moreover, in series [1] (cynomolgus monkey, plasma, iv, 2 mg/kg, single i.v. injection, read-out: AUC0-120h), the AUC(0-t) fell in the range of 304 to 312 µM·h. Further, the “AUC0-120 h greater than Cp40-KK” value in series [1] (single i.v. injection) is given as “over 3.5 fold”. For the same compound, the “vitreous residence at C3 saturating levels” value in series [2] (single i.v.t. 0.5 mg) is recorded as no less than 90 days. In addition, in series [2] (single i.v.t. 500 μg, days 14-90), the “detection in vitreous over time” value was “detected even at day 90 post-treatment; also recorded: remained stable during the 73-day observation period”. The compound further returned a solubility in “physchem” greater than 100 mg/mL. For the setting “after additional lyophilization from H2O”, this compound showed a pH of 9.5. Also, under “at the stated concentration, indicator paper”, the “pH of the peptide solution in PBS” value came to 8.5. Moreover, under setting [5], the “Conc. (mg/ml) at which pH in the 7 range was observed” value is 7 mg/ml and 7.0 mg/ml; the pH is reported as 7.5*. In addition, the “Cp40-K fragment detectable in plasma” value in series [3] (4 h after s.c. injection, one monkey) was no more than 5 µM. In addition, in series [3] (after s.c. injection, UPLC-ESI-MS), the “in vivo Lys cleavage in plasma” value was “one or two Lys residues are cleaved from Cp40-KKK in NHP plasma, but not the third; also recorded: no Cp40 was detected in any of the plasma samples; also recorded: almost completely metabolized into Cp40-KK and small amounts of Cp40-K”. Moreover, in series [3] (single s.c. 2 mg/kg), the “decreased CL/F compared to Cp40” value is on record as roughly 3 fold, the “higher cmax than Cp40” value is roughly 2 fold and the “increased AUC0-t compared to Cp40” value was roughly 2.6 fold. Further, the “plasma concentration of uncleaved Cp40-KKK at any time point” value in series [3] (single s.c. 2 mg/kg, UPLC-ESI-MS, both animals) is no more than 2000 nM. The “CL/F, apparent clearance” value in series [3] (single s.c. 2 mg/kg, SUM for Lys analogs, 2 mg/kg) was 2483 ((mg/kg)/(μM · h) and 2921 ((mg/kg)/(μM · h). In series [4], the “complement classical pathway inhibitory activity” value is given as “inhibitory activity in a dose-dependent manner”.
